Columns and labels:
[1] = system: wheat; assay: Growth inhibition (adverse effects) of seed treatment on wheat seeds; type: in vivo; details: for Growth inhibition index: wheat, 20 days after sowing
Procedure: A pot experiment was performed to evaluate the growth inhibition (adverse effects) caused by the seed treatment. Compound (1-1a) and Compound (1-2a), each of which was dissolved in DMSO to make up such a concentration that the seeds would be treated in treatment amount of 2 g to 200 g ai/100 kg seeds, were each applied to wheat seeds in a vial, and thereafter 8 wheat seeds were sowed in an 80-cm^2 pot. The pot was kept in a greenhouse with water supplied to its bottom. 20 days after the sowing, a growth measure of wheat was evaluated. A growth inhibition index was calculated based on the criteria shown by Table 10. In Table 10, a smaller growth inhibition index indicates a lesser adverse effect of growth inhibition caused by the treatment with the use of a plant disease controlling agent.

[2] = system: Phaeosphaeria nodorum; assay: Test 1 for antifungal effect, plate medium: P.n; type: cell-based; details: PDA plate medium
Procedure: (§1) Compound (1-1a) or Compound (1-2a) was dissolved in dimethyl sulfoxide, and the resulting solution was added to a PDA medium (potato dextrose-agar medium) at about 60° C. The medium and the solution were mixed thoroughly in a conical flask, poured into a petri dish, and allowed to solidify. In this way, a plate medium containing Compound (1-1a) or Compound (1-2a) at a certain concentration was prepared.
(§2) Meanwhile, test microorganisms cultured on a plate medium in advance were cut out with the use of a cork borer 4 mm in diameter, and were inoculated onto the compound-containing plate medium. After the inoculation, the microorganisms were cultured at their optimum growth temperatures (for example, refer to LIST OF CULTURES 1996 microorganisms 10th edition, Institute for Fermentation (foundation)) for 1 day to 7 days, and their growth was determined by measuring the diameter of their flora. The extent of growth of the microorganisms on the compound-containing plate medium was compared with that of microorganisms on a plate medium where no compound was added, and mycelial growth inhibition rate was calculated by the following equation: R=100(dc−dt)/dc where R is mycelial growth inhibition rate (%), dc is the flora diameter in untreated plate, and dt is the flora diameter in plate treated with the compound.
(§3) A larger antifungal index indicates a better antifungal effect.

[3] = system: Gibberella fujikuroi; assay: Test 1 for antifungal effect, plate medium: G.f; type: cell-based; details: PDA plate medium
Procedure: as §1, §2, §3

[4] = system: Botrytis cinerea; assay: Test 1 for antifungal effect, plate medium: B.c; type: cell-based; details: PDA plate medium
Procedure: as §1, §2, §3

[5] = system: Glomerella cingurata; assay: Test 1 for antifungal effect, plate medium: G.c; type: cell-based; details: PDA plate medium
Procedure: as §1, §2, §3

[6] = system: Pyrenophora graminea; assay: Test 2 for antifungal effect, plate medium: P.g; type: cell-based; details: PDA plate medium
Procedure: (§4) Compound (1-1b) or Compound (1-2b) was dissolved in dimethyl sulfoxide, and the resulting solution was added to a PDA medium (potato dextrose-agar medium) at about 60° C. The medium and the solution were mixed thoroughly in a conical flask, poured into a petri dish, and allowed to solidify. In this way, a plate medium containing Compound (1-1b) or Compound (1-2b) at a certain concentration was prepared.
(§5) Meanwhile, test microorganisms cultured on a plate medium in advance were cut out with the use of a cork borer 4 mm in diameter, and were inoculated onto the compound-containing plate medium. After the inoculation, the pathogens were cultured at their optimum growth temperatures (for example, refer to LIST OF CULTURES 1996 microorganisms 10th edition, Institute for Fermentation (foundation)) for 1 day to 7 days, and their growth was determined by measuring the diameter of their flora. The extent of growth of the pathogens on the compound-containing plate medium was compared with that of pathogens on a plate medium where no compound was added, and mycelial growth inhibition rate was calculated as in Experiment Example 10. Note that, in Experiment Example 11, controls used in the antifungal effect tests are Compound (1-1a) and Compound (1-2a) instead of Compound (1-1b) and Compound (1-2b), respectively.
(§6) The results were rated on a 1-to-5 scale as in Experiment Example 10.

[7] = system: Ustilago nuda; assay: Test 2 for antifungal effect, plate medium: U.n; type: cell-based; details: PDA plate medium
Procedure: as §4, §5, §6

[8] = system: Septoria tritici; assay: Test 2 for antifungal effect, plate medium: S.t; type: cell-based; details: PDA plate medium
Procedure: as §4, §5, §6

CC1(CCl)CCC(Cc2ccc(F)cc2)C1(O)Cn1cncn1 (single isomer, unassigned) [Compound (1-2b), (1,2-cis, 1,5-cis)-5-(4-fluorobenzyl)-2-chloromethyl-2-methyl-1-(1H-1,2,4-triazole-1-ylmethyl)cyclopentanol]
Growth of the treated seeds ([1]; wheat seed treatment 20 g ai/100 kg seeds (seen in the brown rust seed treatment test)): inhibited | Growth inhibition index ([1]; treatment amount 2 g ai/100 kg seeds): 0 (50% or more) | Growth inhibition index ([1]; treatment amount 20 g ai/100 kg seeds): 4 (Less than 20% but 10% or more) | Growth inhibition index ([1]; treatment amount 200 g ai/100 kg seeds): 5 (Less than 10%) | Antifungal index (mycelial growth inhibition rate) ([2]; 0.16 mg/L): 1 (Less than 60%) | Antifungal index (mycelial growth inhibition rate) ([2]; 0.31 mg/L): 1 (Less than 60%) | Antifungal index (mycelial growth inhibition rate) ([2]; 0.63 mg/L): 2 (Less than 70% but not less than 60%) | Antifungal index (mycelial growth inhibition rate) ([2]; 1.25 mg/L): 3 (Less than 80% but not less than 70%) | Antifungal index (mycelial growth inhibition rate) ([2]; 2.50 mg/L): 5 (90% or greater) | Antifungal index (mycelial growth inhibition rate) ([3]; 0.16 mg/L): 3 (Less than 80% but not less than 70%) | Antifungal index (mycelial growth inhibition rate) ([3]; 0.31 mg/L): 4 (Less than 90% but not less than 80%) | Antifungal index (mycelial growth inhibition rate) ([3]; 0.63 mg/L): 5 (90% or greater) | Antifungal index (mycelial growth inhibition rate) ([3]; 1.25 mg/L): 5 (90% or greater) | Antifungal index (mycelial growth inhibition rate) ([3]; 2.50 mg/L): 5 (90% or greater) | Antifungal index (mycelial growth inhibition rate) ([4]; 0.16 mg/L): 1 (Less than 60%) | Antifungal index (mycelial growth inhibition rate) ([4]; 0.31 mg/L): 3 (Less than 80% but not less than 70%) | Antifungal index (mycelial growth inhibition rate) ([4]; 0.63 mg/L): 5 (90% or greater) | Antifungal index (mycelial growth inhibition rate) ([4]; 1.25 mg/L): 5 (90% or greater) | Antifungal index (mycelial growth inhibition rate) ([4]; 2.50 mg/L): 5 (90% or greater) | Antifungal index (mycelial growth inhibition rate) ([5]; 0.16 mg/L): 3 (Less than 80% but not less than 70%) | Antifungal index (mycelial growth inhibition rate) ([5]; 0.31 mg/L): 4 (Less than 90% but not less than 80%) | Antifungal index (mycelial growth inhibition rate) ([5]; 0.63 mg/L): 5 (90% or greater) | Antifungal index (mycelial growth inhibition rate) ([5]; 1.25 mg/L): 5 (90% or greater) | Antifungal index (mycelial growth inhibition rate) ([5]; 2.50 mg/L): 5 (90% or greater) | Antifungal index (mycelial growth inhibition rate) ([6]; 0.04 mg/L): 4 (Less than 90% but not less than 80%) | Antifungal index (mycelial growth inhibition rate) ([6]; 0.08 mg/L): 5 (90% or greater) | Antifungal index (mycelial growth inhibition rate) ([6]; 0.16 mg/L): 5 (90% or greater) | Antifungal index (mycelial growth inhibition rate) ([6]; 0.31 mg/L): 5 (90% or greater) | Antifungal index (mycelial growth inhibition rate) ([6]; 0.63 mg/L): 5 (90% or greater) | Antifungal index (mycelial growth inhibition rate) ([6]; 1.25 mg/L): 5 (90% or greater) | Antifungal index (mycelial growth inhibition rate) ([7]; 0.04 mg/L): 1 (Less than 60%) | Antifungal index (mycelial growth inhibition rate) ([7]; 0.08 mg/L): 1 (Less than 60%) | Antifungal index (mycelial growth inhibition rate) ([7]; 0.16 mg/L): 2 (Less than 70% but not less than 60%) | Antifungal index (mycelial growth inhibition rate) ([7]; 0.31 mg/L): 4 (Less than 90% but not less than 80%) | Antifungal index (mycelial growth inhibition rate) ([7]; 0.63 mg/L): 4 (Less than 90% but not less than 80%) | Antifungal index (mycelial growth inhibition rate) ([7]; 1.25 mg/L): 5 (90% or greater) | Antifungal index (mycelial growth inhibition rate) ([8]; 0.04 mg/L): 2 (Less than 70% but not less than 60%) | Antifungal index (mycelial growth inhibition rate) ([8]; 0.08 mg/L): 5 (90% or greater) | Antifungal index (mycelial growth inhibition rate) ([8]; 0.16 mg/L): 5 (90% or greater) | Antifungal index (mycelial growth inhibition rate) ([8]; 0.31 mg/L): 5 (90% or greater) | Antifungal index (mycelial growth inhibition rate) ([8]; 0.63 mg/L): 5 (90% or greater) | Antifungal index (mycelial growth inhibition rate) ([8]; 1.25 mg/L): 5 (90% or greater)
